Values of other authors in US8591947B2, “Dual controlled release dosage form” (Osmotica Kereskedelmi és Szolgáltató KFT, priority 2001, dated 2013).
Counter-ions that a name gives are not always drawn.

SMILES	Solubility of component in water (U.S.P. term)
CC(=O)Nc1ccc(O)cc1 [acetaminophen]	very slightly soluble
Nc1nc2c(ncn2COCCO)c(=O)[nH]1 [acyclovir]	slightly soluble
CC(C)(C)NCC(O)c1ccc(O)c(CO)c1 (stereo not drawn) [albuterol]	sparingly soluble
Oc1ncnc2[nH]ncc12 [allopurinol]	very slightly soluble
CN(C)CCC=C1c2ccccc2CCc2ccccc21 [amitriptyline]	freely soluble
CCOC(=O)C1=C(COCCN)NC(C)=C(C(=O)OC)C1c1ccccc1Cl (stereo not drawn) [amlodipine besylate]	slightly soluble
CC(=O)Oc1ccccc1C(=O)O [aspirin]	slightly soluble
CC[C@H]1OC(=O)[C@H](C)[C@@H](O[C@H]2C[C@@](C)(OC)[C@@H](O)[C@H](C)O2)[C@H](C)[C@@H](O[C@@H]2O[C@H](C)C[C@H](N(C)C)[C@H]2O)[C@](C)(O)C[C@@H](C)CN(C)[C@H](C)[C@@H](O)[C@]1(C)O [azithromycin dihydrate]	practically insoluble
CCOC(=O)[C@H](CCc1ccccc1)N[C@H]1CCc2ccccc2N(CC(=O)O)C1=O [benazepril]	soluble
CC(NC(C)(C)C)C(=O)c1cccc(Cl)c1 (stereo not drawn) [bupropion HCl]	soluble
O=C1CC2(CCCC2)CC(=O)N1CCCCN1CCN(c2ncccn2)CC1 [buspirone HCl]	freely soluble
C[C@H](CS)C(=O)N1CCC[C@H]1C(=O)O [captopril]	freely soluble
NC(=O)N1c2ccccc2C=Cc2ccccc21 [carbamazepine]	practically insoluble

More lines, now with the values ahead:

Solubility of component in water (U.S.P. term)	SMILES
practically insoluble	COc1ccccc1OCCNCC(O)COc1cccc2[nH]c3ccccc3c12 (stereo not drawn) [carvedilol]
practically insoluble	Cc1ccc(-c2cc(C(F)(F)F)nn2-c2ccc(S(N)(=O)=O)cc2)cc1 [celecoxib]
sparingly soluble	CN/C(=N/CCSCc1nc[nH]c1C)NC#N [cimetidine]
practically insoluble	COc1cc(N)c(Cl)cc1C(=O)NC1CCN(CCCOc2ccc(F)cc2)CC1OC (stereo not drawn) [cisapride monohydrate]
sparingly soluble	CN(C)CCCC1(c2ccc(F)cc2)OCc2cc(C#N)ccc21 (stereo not drawn) [citalopram]
soluble	Clc1cccc(Cl)c1N=C1NCCN1 [clonidine HCl]
practically insoluble	COC(=O)[C@H](c1ccccc1Cl)N1CCc2sccc2C1 [clopidogrel bisulfate]
freely soluble	CN(C)CCC=C1c2ccccc2C=Cc2ccccc21 [cyclobenzaprine HCl]
freely soluble	COc1ccc([C@@H]2Sc3ccccc3N(CCN(C)C)C(=O)[C@@H]2OC(C)=O)cc1 [diltiazem HCl]
slightly soluble	COc1cc2nc(N3CCN(C(=O)C4COc5ccccc5O4)CC3)nc(N)c2cc1OC (stereo not drawn) [doxazosin mesylate]
soluble	C[C@H]1c2cccc(O)c2C(=O)C2=C(O)[C@]3(O)C(=O)C(C(N)=O)=C(O)[C@@H](N(C)C)[C@@H]3[C@@H](O)[C@@H]21 [doxycycline hydrate]
sparingly soluble	CCOC(=O)[C@H](CCc1ccccc1)N[C@@H](C)C(=O)N1CCC[C@H]1C(=O)O [enalapril maleate]
practically insoluble	CCOC(=O)C1=C(C)NC(C)=C(C(=O)OC)C1c1cccc(Cl)c1Cl (stereo not drawn) [felodipine]
slightly soluble	OC(Cn1cncn1)(Cn1cncn1)c1ccc(F)cc1F [fluconazole]
